EC50 and AC50 data for 25 compounds are collected here from ChEMBL document CHEMBL1201862, “PubChem BioAssay data set” (2004).

A short description of assay [1]: Luminescence Cell-Based Dose Response HTS to Identify Inhibitors of 5'UTR Stem-Loop Driven Prion Protein mRNA Translation in H4 Neuroglioblastoma Cells. [Related pubchem assays: 1827 (Project Summary), 1813 (Primary HTS)]. The class given is functional.
A short description of assay [2]: NIH3T3 cell viability loss – ATP luminescence, mouse fibroblasts, counter-screen, dose response (AID 2010).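 Further: cells exposed to compound for about 90 hours before reading.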 The class given is functional, cell-based. On the technique in general: A counterscreen serves to expose hits that act by an unwanted route or on another target.
The nature of assay [3]: Trypanosoma cruzi growth suppression in host cells – NIH3T3 host cells, beta-gal luminescence, confirmation (AID 2044).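 Further: intracellular parasites grown in NIH/3T3 mouse fibroblasts as host cells; luminescent beta-galactosidase reporter signal from transgenic T. cruzi replicating inside host cells; inhibitors lower the luminescence signal.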 In kind it is functional, cell-based.
Assay [4] in a line: luciferase reporter signal suppression in cells – H4 neuroglioma cells, luminescence, dose response (AID 1990). In kind it is functional, cell-based. Background: Reporter assays use an easily measured gene product as a stand-in for the process of interest.
A short description of assay [5]: alpha-synuclein stem-loop luciferase translation blockers – H4 neuroglioma cells, luminescence, confirmation (AID 1988). In kind it is functional, cell-based.
The target of assay [6] is T1, Heat shock factor protein 1 (Mus musculus, UniProt P38532).
T1 sequence (P38532 whole entry): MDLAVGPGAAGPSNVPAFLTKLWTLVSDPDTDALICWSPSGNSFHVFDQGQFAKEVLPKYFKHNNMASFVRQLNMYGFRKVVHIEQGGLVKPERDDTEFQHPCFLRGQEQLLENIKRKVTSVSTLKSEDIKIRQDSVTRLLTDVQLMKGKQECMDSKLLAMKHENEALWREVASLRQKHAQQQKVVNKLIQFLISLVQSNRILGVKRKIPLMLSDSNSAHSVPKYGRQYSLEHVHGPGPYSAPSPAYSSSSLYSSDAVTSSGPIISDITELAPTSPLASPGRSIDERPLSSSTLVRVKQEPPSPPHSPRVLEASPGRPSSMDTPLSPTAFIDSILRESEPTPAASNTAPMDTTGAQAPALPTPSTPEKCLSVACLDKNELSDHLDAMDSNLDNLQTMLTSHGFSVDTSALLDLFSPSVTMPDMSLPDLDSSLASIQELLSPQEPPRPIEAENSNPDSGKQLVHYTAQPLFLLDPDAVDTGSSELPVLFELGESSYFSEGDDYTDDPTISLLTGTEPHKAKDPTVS
In words: enhancement of HSF1-driven luciferase signal – cell-based, NIH3T3, luminescence, dose retest, confirmation (AID 435004).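 Further: stress induced by proteasome inhibitor MG132 added 30 min after compound; luciferase reporter driven by HSF1 response element in NIH3T3 cells; actives raise luminescence as potentiators of the MG132 stress response.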 The class given is functional.

In assay [7] the target is Cytochrome P450 3A4 (Homo sapiens, UniProt P08684).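 Further: CYP3A4 tested as one member of a cytochrome P450 panel screen.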
Cytochrome P450 3A4, sequence (P08684 whole entry): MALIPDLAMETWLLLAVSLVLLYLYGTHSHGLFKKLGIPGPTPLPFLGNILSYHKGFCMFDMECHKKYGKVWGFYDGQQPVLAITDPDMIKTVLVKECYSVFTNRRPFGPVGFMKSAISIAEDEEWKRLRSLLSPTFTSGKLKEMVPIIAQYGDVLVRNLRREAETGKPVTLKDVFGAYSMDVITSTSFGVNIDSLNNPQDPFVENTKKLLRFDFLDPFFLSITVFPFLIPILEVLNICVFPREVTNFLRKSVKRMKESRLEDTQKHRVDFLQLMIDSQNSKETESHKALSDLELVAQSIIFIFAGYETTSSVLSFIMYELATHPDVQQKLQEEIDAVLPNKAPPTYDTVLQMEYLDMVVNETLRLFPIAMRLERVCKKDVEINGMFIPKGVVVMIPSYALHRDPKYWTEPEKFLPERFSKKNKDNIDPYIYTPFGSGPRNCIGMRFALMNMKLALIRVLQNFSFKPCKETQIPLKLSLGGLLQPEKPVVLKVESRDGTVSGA
Assay [8] concerns the target Cytochrome P450 2D6 (Homo sapiens, UniProt P10635).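 Further: CYP2D6 member of a cytochrome P450 panel assay.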
Assay [9] is described as follows: Luminescence Cell-Based Dose Retest to Confirm Inhibitors of Cancer Stem Cells. [Related pubchem assays (depositor defined):AID2717, AID2721]. In kind it is functional. The settings on record: Homo sapiens.
Assay [10] concerns Streptococcus. Description: GAS UMAA2166 growth inhibition – luminescence, BacTiterGlo, counter-screen for streptokinase expression inhibitor project, dose response (AID 1915).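 Further: potency for reduction of bacterial viability or growth.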 The class given is functional, organism-based.
Assay [11] concerns the target T2, Streptokinase A (Streptococcus pyogenes serotype M1, UniProt P10520).
T2 sequence (P10520 whole entry): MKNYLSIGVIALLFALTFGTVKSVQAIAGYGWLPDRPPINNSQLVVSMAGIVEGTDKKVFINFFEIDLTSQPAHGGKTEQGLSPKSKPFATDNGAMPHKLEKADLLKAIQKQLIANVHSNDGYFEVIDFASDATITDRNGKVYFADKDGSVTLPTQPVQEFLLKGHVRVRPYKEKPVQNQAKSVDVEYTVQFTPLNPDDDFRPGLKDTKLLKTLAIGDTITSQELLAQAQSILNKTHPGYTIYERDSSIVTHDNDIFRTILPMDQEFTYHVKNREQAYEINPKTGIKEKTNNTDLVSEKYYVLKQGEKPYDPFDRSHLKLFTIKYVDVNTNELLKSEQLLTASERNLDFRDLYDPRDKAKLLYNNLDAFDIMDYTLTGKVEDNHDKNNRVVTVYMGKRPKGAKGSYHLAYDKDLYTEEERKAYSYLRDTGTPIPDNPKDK
In words: viability-normalized secreted streptokinase activity reduction – plasminogen activation absorbance, OD405, dose response (AID 1914).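 Further: secreted streptokinase activity via plasminogen activation per viability signal from cell pellet.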 In kind it is functional, Streptococcus pyogenes M1 GAS.

The test system of assay [12] is Streptococcus sp. 'group A'. Description: Streptococcus pyogenes SK(-)GAS viability under kanamycin – luminescence, BacTiterGlo, confirmation, counter-screen for streptokinase expression inhibitor project, dose response (AID 1900). In kind it is functional, organism-based.

Activity calls are given as the source filed them. For most assays here, no stated cut-off is given here; in the data, actives have a measured EC50 and inactives only a lower limit.

Cytochrome P450 2D6, sequence (P10635 whole entry): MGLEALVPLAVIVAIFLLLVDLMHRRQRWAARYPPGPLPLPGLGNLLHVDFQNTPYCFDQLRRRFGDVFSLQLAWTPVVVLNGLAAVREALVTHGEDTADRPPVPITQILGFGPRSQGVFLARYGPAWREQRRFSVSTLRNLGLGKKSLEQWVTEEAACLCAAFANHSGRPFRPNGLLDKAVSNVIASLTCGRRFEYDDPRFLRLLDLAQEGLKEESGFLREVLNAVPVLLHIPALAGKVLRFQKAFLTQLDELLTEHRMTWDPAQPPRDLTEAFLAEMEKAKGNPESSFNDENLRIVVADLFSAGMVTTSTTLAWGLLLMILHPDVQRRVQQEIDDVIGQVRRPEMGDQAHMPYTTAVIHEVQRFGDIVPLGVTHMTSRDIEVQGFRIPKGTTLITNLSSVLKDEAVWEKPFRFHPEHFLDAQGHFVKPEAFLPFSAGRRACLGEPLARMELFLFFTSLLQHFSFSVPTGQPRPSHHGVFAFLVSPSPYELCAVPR

Usually EC50 stands for the midpoint of the concentration-response curve. As to `Cc1ccc(-n2nc3c(N4CCC(C(=O)NCCc5ccccc5C)CC4)nnc(C)c3c2C)cc1`, the EC50 in [1] is 39.8 µM (active); in assay [2], 6.26 µM (active); in assay [3], 0.941 µM (active); in assay [4], 9.7 µM (active); in assay [5], > 120 µM (not active). For the compound `O=C1CC(c2cccc(Cl)c2)c2cc3c(cc2N1)CCC3` (centres undefined), the 50% effective concentration (EC50) is 11.9 µM (active) in assay [1], > 120 µM (not active) in assay [4] and 6.74 µM (active) in assay [5]. As for `CC(=O)NCCC(=O)Nc1nc(-c2cccs2)c(-c2cccs2)s1`, the EC50 in assay [6] was > 260 µM (inactive). By AC50 is commonly meant the concentration giving half of the maximal activity seen. For `Oc1cccc(-c2nc3c4c(ncn3n2)-c2ccccc2CC42CCCC2)c1`, the half-maximal activity concentration (AC50) is 22.4 µM (inconclusive) in assay [7], 0.631 µM (inconclusive) in [8] and 1.16 µM (active) in assay [9]. Regarding `Cn1nnc2c[n+](CC(=O)c3ccc4ccccc4c3)cc(Br)c21`, in assay [6], the EC50 was 12.2 µM (active). On the same count and under the same terms, then `O=[N+]([O-])CC(c1ccccc1)c1c(O)n[nH]c1-c1ccccc1O` (centres undefined), with 131 µM (active). As for `O=C1c2c(Br)c(Br)c(Br)c(Br)c2C(=O)N1c1ccccn1`, in assay [9], the concentration at half-maximal activity (AC50) is 1.95 µM (active). In the case of `O=C(Nc1cccc(-c2csc(Nc3cccc(C(F)(F)F)c3)n2)c1)c1ccccc1`, the values for the concentration giving a half-maximal response (EC50) in assay [10], in [11] and in assay [12] were 6.3 µM (active), > 150 µM (not active) and 4.47 µM (active), respectively. In [9], the AC50 was 1.6 µM (active). Consider `Cc1cc(-c2csc3ncnc(S)c23)cc(C)c1C`, for which the EC50 in assay [10] is 4.06 µM (active); in [12], 1.31 µM (active). Besides, the half-maximal activity concentration (AC50) in assay [9] was 12.8 µM (active). Turning to `COc1nc(N2CCCCCC2)nc(N2CCCCCC2)n1`, in [9], the AC50 was 6.21 µM (active). In the case of `COC(=O)N1C(=O)[C@@](c2ccccc2)(C2CCCC2)N1C(=O)OC`, the concentration for a half-maximal effect (EC50) in assay [6] is 14.9 µM (active). `CC(C)(C)c1ccc(Oc2ccc(NC(=O)c3cccs3)cn2)cc1`: in [9], the AC50 was 3.9 µM (active).

`Cc1ccc(NC(=O)c2cc3c(=O)oc4ccccc4c3s2)nc1`: in [6], the EC50 was > 260 µM (inactive). Still for that read-out and setting: then `CCN(CC(=O)Nc1ccc(NC(C)=O)cc1)Cc1c(O)ccc2cc(Br)ccc12`, with 8.46 µM (active); and `CN(C)c1nc(NC(C)(C)C)nc(SCC(=O)Nc2ccccc2)n1`, with > 260 µM (inactive). Regarding `COc1ccccc1-c1c(C(F)(F)F)oc2cc(OCC(=O)Nc3cc(C)ccc3C)ccc2c1=O`, the EC50 in [1], in [4] and in assay [5] was > 120 µM (not active) each time. In the case of `CCOc1ccc(C2C3=C(O)CCCC3=Nc3ccc4ncccc4c32)cc1` (centres undefined), the concentration giving a half-maximal response (EC50) in assay [6] was 14.1 µM (active).

For the compound `CCCCN=C(S)N(Cc1ccco1)Cc1cc2cc3c(cc2nc1O)OCCO3`, in assay [6], the EC50 was > 260 µM (inactive). Turning to `Cc1cc(OCc2cc(C(=O)N3CCC(Oc4cccnc4)CC3)no2)cc(C)c1Cl`, in assay [9], the concentration at half-maximal activity (AC50) was 7.55 µM (active). Consider `Cc1ccc(-n2c(SCC(=O)Nc3cc(S(=O)(=O)N4CCOCC4)ccc3Cl)nc3ccccc3c2=O)cc1`, for which the EC50 in [6] was > 260 µM (inactive). Take `CC1CCN(Cc2c(C(=O)N/N=C/c3ccc(C(C)(C)C)cc3)nnn2-c2nonc2N)CC1`: the 50% effective concentration (EC50) was 14.1 µM (active) in [1], 9.56 µM (active) in [4] and > 120 µM (not active) in [5]. As for `Cc1onc(-c2ccccc2)c1C(=O)N/N=C/c1cccc(O)c1`, the EC50 in assay [6] was > 260 µM (inactive).

Consider `COC(=O)/C(=C\Nc1ccccc1N)c1ncc(C(F)(F)F)cc1Cl`, for which the EC50 in assay [6] was > 260 µM (inactive). On the same count and under the same terms, in the case of `CCOC(=O)C1=C(C)N=c2s/c(=C\C(=O)OC)c(=O)n2C1c1ccc(OC)cc1` (centres undefined) it was 10.1 µM (active).

Take `COc1ccc(/C=N/NC(=O)C2C3CCCCC32)cc1OC` (centres undefined): the EC50 in [1] was > 120 µM (not active); in [4], > 120 µM (not active); in assay [5] it was 67.5 µM (active).
